According to US20250114345A1, “COMPOUNDS AND COMPOSITIONS AS CBP/P300 DEGRADERS AND USES THEREOF” (Oncopia Therapeutics, Inc. d/b/a/ SK Life Science Labs, priority 2023, published 2025):

Biological target: T1, p300 (Homo sapiens, UniProt Q09472)
T1 construct: host or cells: A549 P300 HiBit cells
Test: P300 degradation, HiBit technology in A549 P300 HiBit cells (2 h)
Type: cell-based
Conditions: 2 hrs post treatment; for Dmax: A549, A549 P300 HiBit cells; for DC50: A549 P300 HiBit cells
Method in brief: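 Degradation potency and Dmax came from luminescence after 10 min room-temperature lysis with HiBit detection buffer. Beforehand, HiBit-tagged A549 lines received serial compound dilutions (10 mM DMSO stocks) at 37 °C, 5% CO2. CBP cells were read at 24 h, p300 cells at 2 h.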

T1 sequence (Q09472 whole entry): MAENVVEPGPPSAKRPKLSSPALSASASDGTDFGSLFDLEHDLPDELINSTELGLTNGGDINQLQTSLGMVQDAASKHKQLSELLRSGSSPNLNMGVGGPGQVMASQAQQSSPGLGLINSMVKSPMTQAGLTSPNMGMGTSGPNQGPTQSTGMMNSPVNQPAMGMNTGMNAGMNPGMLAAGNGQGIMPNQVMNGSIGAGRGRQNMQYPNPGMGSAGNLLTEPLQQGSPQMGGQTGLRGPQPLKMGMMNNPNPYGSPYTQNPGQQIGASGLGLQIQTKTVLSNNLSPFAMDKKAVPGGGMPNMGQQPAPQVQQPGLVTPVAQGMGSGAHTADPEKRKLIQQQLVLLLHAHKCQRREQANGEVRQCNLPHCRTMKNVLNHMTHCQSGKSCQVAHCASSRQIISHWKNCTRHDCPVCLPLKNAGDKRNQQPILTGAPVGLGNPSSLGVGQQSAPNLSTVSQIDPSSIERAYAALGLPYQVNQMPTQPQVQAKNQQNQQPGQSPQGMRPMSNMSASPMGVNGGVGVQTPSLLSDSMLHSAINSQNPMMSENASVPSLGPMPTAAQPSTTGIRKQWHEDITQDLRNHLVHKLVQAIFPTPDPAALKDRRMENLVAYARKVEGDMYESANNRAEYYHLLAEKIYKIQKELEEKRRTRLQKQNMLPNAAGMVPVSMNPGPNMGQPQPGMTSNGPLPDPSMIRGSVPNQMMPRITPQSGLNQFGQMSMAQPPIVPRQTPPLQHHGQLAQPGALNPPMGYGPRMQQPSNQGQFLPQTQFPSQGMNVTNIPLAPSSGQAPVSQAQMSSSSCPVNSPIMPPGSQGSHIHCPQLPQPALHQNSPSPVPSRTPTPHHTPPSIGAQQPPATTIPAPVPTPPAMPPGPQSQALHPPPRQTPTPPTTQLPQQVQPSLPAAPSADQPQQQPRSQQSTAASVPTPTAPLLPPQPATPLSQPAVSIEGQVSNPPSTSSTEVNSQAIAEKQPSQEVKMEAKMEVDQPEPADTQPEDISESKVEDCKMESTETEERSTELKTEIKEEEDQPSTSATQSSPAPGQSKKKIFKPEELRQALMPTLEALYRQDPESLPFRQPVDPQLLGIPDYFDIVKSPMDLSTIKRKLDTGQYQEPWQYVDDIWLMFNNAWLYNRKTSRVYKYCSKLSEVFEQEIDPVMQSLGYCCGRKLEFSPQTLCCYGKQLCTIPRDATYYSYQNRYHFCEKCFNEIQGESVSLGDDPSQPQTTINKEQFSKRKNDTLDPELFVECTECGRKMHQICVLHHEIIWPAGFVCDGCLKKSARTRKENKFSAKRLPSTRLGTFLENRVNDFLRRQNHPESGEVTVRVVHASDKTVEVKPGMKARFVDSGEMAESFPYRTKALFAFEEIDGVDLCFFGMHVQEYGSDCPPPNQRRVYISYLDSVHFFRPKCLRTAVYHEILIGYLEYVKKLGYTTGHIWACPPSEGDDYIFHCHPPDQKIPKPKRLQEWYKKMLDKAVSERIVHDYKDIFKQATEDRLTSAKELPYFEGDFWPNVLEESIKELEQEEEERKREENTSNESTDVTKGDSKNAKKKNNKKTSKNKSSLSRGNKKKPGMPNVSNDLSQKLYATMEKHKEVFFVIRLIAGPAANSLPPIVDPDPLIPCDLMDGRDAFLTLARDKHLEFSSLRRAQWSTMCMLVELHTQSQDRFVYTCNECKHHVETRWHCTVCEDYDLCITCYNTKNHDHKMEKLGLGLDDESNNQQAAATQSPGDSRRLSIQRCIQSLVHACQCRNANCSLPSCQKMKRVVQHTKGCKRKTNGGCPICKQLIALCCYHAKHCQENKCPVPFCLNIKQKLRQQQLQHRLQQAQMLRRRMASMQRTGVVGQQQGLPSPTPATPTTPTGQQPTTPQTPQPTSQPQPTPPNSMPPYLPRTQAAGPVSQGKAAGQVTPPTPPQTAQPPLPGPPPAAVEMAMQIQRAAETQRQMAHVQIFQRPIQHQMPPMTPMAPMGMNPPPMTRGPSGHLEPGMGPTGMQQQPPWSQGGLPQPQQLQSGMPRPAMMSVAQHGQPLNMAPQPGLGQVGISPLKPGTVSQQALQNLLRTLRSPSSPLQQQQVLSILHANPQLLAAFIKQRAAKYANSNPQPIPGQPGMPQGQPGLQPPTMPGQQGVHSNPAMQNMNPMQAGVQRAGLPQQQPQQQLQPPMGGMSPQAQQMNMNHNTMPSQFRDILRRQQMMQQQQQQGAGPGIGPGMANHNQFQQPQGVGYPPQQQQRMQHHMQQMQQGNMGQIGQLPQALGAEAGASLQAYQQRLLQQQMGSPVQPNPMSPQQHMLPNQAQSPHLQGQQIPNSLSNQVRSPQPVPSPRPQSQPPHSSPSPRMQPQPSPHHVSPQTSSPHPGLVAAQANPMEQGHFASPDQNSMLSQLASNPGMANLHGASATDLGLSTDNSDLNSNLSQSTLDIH

Cn1c(=O)n(C)c2c(N3CC[Si](C)(C)CC3)nc(-c3cccc4cc(-c5ccc(C(=O)NCC#Cc6ccc7occ(C8CCC(=O)NC8=O)c7c6)nc5)ncc34)cc21 (centres unmarked) [Example A118, 5-(8-(4-(4,4-dimethyl-1,4-azasilinan-1-yl)-1,3-dimethyl-2-oxo-2,3-dihydro-1H-imidazo[4,5-c]pyridin-6-yl)isoquinolin-3-yl)-N-(3-(3-(2,6-dioxopiperidin-3-yl)benzofuran-5-yl)prop-2-yn-1-yl)picolinamide]
Dmax: 60 to 79%
DC50: 10 to 99 nM

Cc1cc(-c2ccc(N(C)c3cc(C(C)C)c4c(c3)n(C)c(=O)n4C)cc2C#N)cnc1C(=O)NCC#Cc1cccc(NC2CCC(=O)NC2=O)c1 (centres unmarked) [Example A46, 5-(2-cyano-4-((7-isopropyl-1,3-dimethyl-2-oxo-2,3-dihydro-1H-benzo[d]imidazol-5-yl)(methyl)amino)phenyl)-N-(3-(3-((2,6-dioxopiperidin-3-yl)amino)phenyl)prop-2-yn-1-yl)-3-methylpicolinamide]
Dmax: > 80%
DC50: 10 to 99 nM

Cc1cc(-c2ccc(N(c3cc(C(C)C)c4c(c3)n(C)c(=O)n4C)C(F)(F)F)cn2)cnc1C(=O)NCC#Cc1cccc(NC2CCC(=O)NC2=O)c1 (centres unmarked) [Example A52, N-(3-(3-((2,6-dioxopiperidin-3-yl)amino)phenyl)prop-2-yn-1-yl)-5-((7-isopropyl-1,3-dimethyl-2-oxo-2,3-dihydro-1H-benzo [d]imidazol-5-yl) (trifluoromethyl)amino)-5′-methyl-[2,3′-bipyridine]-6′-carboxamide]
Dmax: 60 to 79%
DC50: 100 to 999 nM

CCc1cc(-c2cccc3cc(-c4ccc(C(=O)NCC#Cc5ccc6c(C)nn(C7CCC(=O)NC7=O)c6c5)nc4)ncc23)c2cc(C)c(=O)n(C)c2c1 (centres unmarked) [Example B1, N-(3-(1-(2,6-Dioxopiperidin-3-yl)-3-methyl-1H-indazol-6-yl)prop-2-yn-1-yl)-5-(8-(7-ethyl-1,3-dimethyl-2-oxo-1,2-dihydroquinolin-5-yl)isoquinolin-3-yl)picolinamide]
Dmax: 60 to 79%
DC50: 10 to 99 nM

CCN(c1cnc(-c2cnc(C(=O)NCC#Cc3ccc4occ(C5CCC(=O)NC5=O)c4c3)c(C)c2)c(F)c1)c1cc(C(C)C)c2c(c1)n(C)c(=O)n2C (centres unmarked) [Example A137, N-(3-(3-(2,6-dioxo-piperidin-3-yl)benzofuran-5-yl)prop-2-yn-1-yl)-5-(ethyl(7-isopropyl-1,3-dimethyl-2-oxo-2,3-dihydro-1H-benzo[d]imidazol-5-yl)amino)-3-fluoro-5′-methyl-[2,3′-bipyridine]-6′-carboxamide]
Dmax: > 80%
DC50: 1 to 9.9 nM

Cc1cc(-c2ncc(N(C)c3cc(C4CCOCC4)c4c(c3)n(C)c(=O)n4C)cn2)cnc1C(=O)NCC#Cc1ccc2occ(C34CC(C3)C(=O)NC4=O)c2c1 [Example A201, 5-(5-((1,3-dimethyl-2-oxo-7-(tetrahydro-2H-pyran-4-yl)-2,3-dihydro-1H-benzo[d]imidazol-5-yl)(methyl)amino)pyrimidin-2-yl)-N-(3-(3-(2,4-dioxo-3-azabicyclo[3.1.1]heptan-1-yl)benzofuran-5-yl)prop-2-yn-1-yl)-3-methylpicolinamide]
Dmax: > 80%
DC50: 1 to 9.9 nM

Cc1cc2c(N3CCCc4cc(-c5ccc(C(=O)NCC#Cc6ccc7occ(C8CCC(=O)NC8=O)c7c6)nc5)c(F)cc43)cc(C3CCOCC3)cc2n(C)c1=O (centres unmarked) [Example B143, N-(3-(3-(2,6-dioxopiperidin-3-yl)benzofuran-5-yl)prop-2-yn-1-yl)-5-(7-fluoro-1′,3′-dimethyl-2′-oxo-7′-(tetrahydro-2H-pyran-4-yl)-1′,2′,3,4-tetrahydro-2H-[1,5′-biquinolin]-6-yl) picolinamide]
Dmax: > 80%
DC50: 1 to 9.9 nM

CC(C)c1cc(N(C)c2cnc(-c3ccc(C(=O)NCC#Cc4ccc5occ(C6CCC(=O)NC6=O)c5c4)nc3)nc2)cc2c1n(C)c(=O)n2C (centres unmarked) [Example A106, N-(3-(3-(2,6-dioxo-piperidin-3-yl)benzofuran-5-yl)prop-2-yn-1-yl)-5-(5-((7-isopropyl-1,3-dimethyl-2-oxo-2,3-dihydro-1H-benzo [d]imidazol-5-yl)(methyl)amino)pyrimidin-2-yl)picolinamide]
Dmax: > 80%
DC50: 1 to 9.9 nM

Cc1cc2c(N3CCCc4nc(-c5ccc(C(=O)NCC#Cc6ccc7occ(C8CCC(=O)NC8=O)c7c6)nc5)ncc43)nc(N(C)C)cc2n(C)c1=O (centres unmarked) [Example B128, 5-(5-(7-(dimethylamino)-1,3-dimethyl-2-oxo-1,2-dihydro-1,6-naphthyridin-5-yl)-5,6,7,8-tetrahydropyrido[3,2-d]pyrimidin-2-yl)-N-(3-(3-(2,6-dioxopiperidin-3-yl)benzofuran-5-yl)prop-2-yn-1-yl)picolinamide]
Dmax: > 80%
DC50: 1 to 9.9 nM

Cc1cc(-c2cc(F)c(Nc3cc(C4CCOCC4)c4c(c3)n(C)c(=O)n4C)cc2C(F)F)cnc1C(=O)NCC#Cc1cc2c(C3CCC(=O)NC3=O)cccc2o1 (centres unmarked) [Example A257, 5-(2-(difluoromethyl)-4-((1,3-dimethyl-2-oxo-7-(tetrahydro-2H-pyran-4-yl)-2,3-dihydro-1H-benzo [d]imidazol-5-yl)amino)-5-fluoro-phenyl)-N-(3-(4-(2,6-dioxopiperidin-3-yl)benzofuran-2-yl)prop-2-yn-1-yl)-3-methylpicolinamide]
Dmax: 60 to 79%
DC50: 1 to 9.9 nM

CC(C)c1cc(-c2cccc3cc(-c4ccc(C(=O)NCC#Cc5cc6c(C7CCC(=O)NC7=O)coc6cc5C#N)nc4)ncc23)cc2c1n(C)c(=O)n2C (centres unmarked) [Example A240, N-(3-(6-cyano-3-(2,6-dioxopiperidin-3-yl)benzofuran-5-yl)prop-2-yn-1-yl)-5-(8-(7-isopropyl-1,3-dimethyl-2-oxo-2,3-dihydro-1H-benzo [d]imidazol-5-yl)isoquinolin-3-yl)picolinamide]
Dmax: 40 to 59%
DC50: 10 to 99 nM

CCc1cc(-c2cccc3cc(-c4ccc(C(=O)NCC#Cc5ccc6c(c5)ncn6C5CCC(=O)NC5=O)nc4)ncc23)c2cc(C)c(=O)n(C)c2c1 (centres unmarked) [Example B12, N-(3-(1-(2,6-Dioxopiperidin-3-yl)-1H-benzo[d]imidazol-5-yl)prop-2-yn-1-yl)-5-(8-(7-ethyl-1,3-dimethyl-2-oxo-1,2-dihydroquinolin-5-yl)isoquinolin-3-yl)picolinamide]
Dmax: < 20%
DC50: > 1000 nM

Cn1c(=O)n(C)c2cc(N3CCCc4cc(-c5ccc(C(=O)NCC#Cc6cc7c(C8CCC(=O)NC8=O)cccc7o6)nc5)nnc43)ccc21 (centres unmarked) [Example A217, 5-(8-(1,3-dimethyl-2-oxo-2,3-dihydro-1H-benzo[d]imidazol-5-yl)-5,6,7,8-tetrahydropyrido[2,3-c]pyridazin-3-yl)-N-(3-(4-(2,6-dioxo-piperidin-3-yl)benzofuran-2-yl)prop-2-yn-1-yl)picolinamide]
Dmax: > 80%
DC50: 1 to 9.9 nM

Cc1cc(-c2ncc(N(C)c3cc(C4CCOCC4)c4c(c3)n(C)c(=O)n4C)c(N(C)C)n2)cnc1C(=O)NCC#Cc1cc2c(C3CCC(=O)NC3=O)cccc2o1 (centres unmarked) [Example A225, 5-(5-((1,3-dimethyl-2-oxo-7-(tetrahydro-2H-pyran-4-yl)-2,3-dihydro-1H-benzo[d]imidazol-5-yl)(methyl)amino)-4-(dimethylamino)pyrimidin-2-yl)-N-(3-(4-(2,6-dioxopiperidin-3-yl)benzofuran-2-yl)prop-2-yn-1-yl)-3-methylpicolinamide]
Dmax: < 20%
DC50: > 1000 nM

COc1nn(C2CCC(=O)NC2=O)c2cc(C#CCNC(=O)c3ccc(-c4cc5cccc(-c6cc(C(C)C)c7c(c6)n(C)c(=O)n7C)c5cn4)cn3)ccc12 (centres unmarked) [Example A4, N-(3-(1-(2,6-Dioxopiperidin-3-yl)-3-methoxy-1H-indazol-6-yl)prop-2-yn-1-yl)-5-(8-(7-isopropyl-1,3-dimethyl-2-oxo-2,3-dihydro-1H-benzo[d]imidazol-5-yl)isoquinolin-3-yl)picolinamide]
Dmax: > 80%
DC50: 10 to 99 nM

Cc1cc2c(N3CCCc4nc(-c5ccc(C(=O)NCC#Cc6ccc7occ(C8CCC(=O)NC8=O)c7c6)nc5)ncc43)nc(N3CCC(F)CC3)cc2n(C)c1=O (centres unmarked) [Example B27, N-(3-(3-(2,6-dioxopiperidin-3-yl)benzofuran-5-yl)prop-2-yn-1-yl)-5-(5-(7-(4-fluoro-piperidin-1-yl)-1,3-dimethyl-2-oxo-1,2-dihydro-1,6-naphthyridin-5-yl)-5,6,7,8-tetrahydropyrido[3,2-d]pyrimidin-2-yl) picolinamide]
Dmax: 60 to 79%
DC50: 1 to 9.9 nM

CCc1cc(-c2ncc3c(n2)CCCN3c2cc(C3CCOCC3)cc3c2cc(C)c(=O)n3C)cnc1C(=O)NCC#Cc1ccc2occ(C3CCC(=O)NC3=O)c2c1 (centres unmarked) [Example B144, 5-(5-(1,3-dimethyl-2-oxo-7-(tetrahydro-2H-pyran-4-yl)-1,2-dihydroquinolin-5-yl)-5,6,7,8-tetrahydropyrido[3,2-d]pyrimidin-2-yl)-N-(3-(3-(2,6-dioxopiperidin-3-yl)benzofuran-5-yl)prop-2-yn-1-yl)-3-ethylpicolinamide]
Dmax: > 80%
DC50: 1 to 9.9 nM

CC(C)c1cc(-c2cccc3cc(-c4ccc(C(=O)NCC#Cc5cc6c(C7CCC(=O)NC7=O)coc6cn5)nc4)ncc23)cc2c1n(C)c(=O)n2C (centres unmarked) [Example A228, N-(3-(3-(2,6-dioxo-piperidin-3-yl)furo[2,3-c]pyridin-5-yl)prop-2-yn-1-yl)-5-(8-(7-isopropyl-1,3-dimethyl-2-oxo-2,3-dihydro-1H-benzo [d]imidazol-5-yl)isoquinolin-3-yl)picolinamide]
Dmax: 60 to 79%
DC50: 1 to 9.9 nM

Cc1cc(-c2ncc3c(n2)OCCN3c2cc(C)c3c(c2)n(C)c(=O)n3C)cnc1C(=O)NCC#Cc1cc2c(C3CCC(=O)NC3=O)cccc2o1 (centres unmarked) [Example A241, N-(3-(4-(2,6-dioxo-piperidin-3-yl)benzofuran-2-yl)prop-2-yn-1-yl)-3-methyl-5-(5-(1,3,7-trimethyl-2-oxo-2,3-dihydro-1H-benzo [d]imidazol-5-yl)-6,7-dihydro-5H-pyrimido [4,5-b][1,4]oxazin-2-yl)picolinamide]
Dmax: > 80%
DC50: 1 to 9.9 nM
